Values quoted from earlier work as cited in patent US20060165637A1, “Topical agent containing phytanic acid or a derivative thereof” (priority 2003, published 2006).

Legend:
RXR = settings: relative to retinoic acid
[1] = applied topically to the skin

| RXR binding affinity, times weaker than that of retinoic acid (RXR) [times] | conversion into phytanic acid [1] | SMILES |
| --- | --- | --- |
| 200 | – | CC(C)CCCC(C)CCCC(C)CCCC(C)CC(=O)O (centres unmarked) [Phytanic acid, 3,7,11,15-tetramethylhexadecanoic acid] |
| – | does not occur | C/C(=C\CO)CCC[C@H](C)CCC[C@H](C)CCCC(C)C [phytol] |
